# Measurements as given in patent publication US10183027B2, “Lanthanide toolbox for multi-modal, non-invasive tumor specific theranostic prodrugs” (priority 2016, dated 2019).
# Values joined by “and” are separate entries in the source; they are usually repeats but may differ in a detail not shown here. Equal entries are not always repeated.
# Experiments:
# [1] = T1 weighted in vivo 7T MRI imaging and bio-distribution; design: species or system BALB/c mice
# Protocol: In vivo 7T MRI measurements of the disclosed compounds in normal mice were conducted. The images were acquired at various time points after solutions of commercial GdDOTA complex (DOTAREM), GdL and PtGdL were injected. […] GdL was immediately captured by the liver, spleen and the kidneys (FIGS. 13A and 14A). […] In comparison to GdDOTA, GdL presents a similar pattern of biodistribution in the kidneys but a slower clearance rate in the liver (0.002 vs 0.016 enh/min). However, PtGdL presents a delayed capture, longer remanence and clearance compared to GdL.
# All animal experiments were performed in accordance with the institutional animal protocol guidelines in place at Paris Descartes University, (saisine CEEA34.JS.142.1) and approved by the Institute's Animal Research Committee.
# Wild-type female 8 weeks BALB/c mice (Elevage Janvier, Le Genest-St-Isle, France) were anaesthetized with isoflurane (1.5%, with air/O2 0.5/0.25 L·min^−1) inhalation and placed in a dedicated contention cradle. 300 μL of Gadolinium complexes in 0.9% physiological serum were intravenously injected via the tail vein while the mouse was in the scanner. For reproducibility studies, 3 mice per group were injected (n=3).
# The scanning protocol was developed using Bruker Paravision 5.1 software. DCE Dynamic contrast Enhanced sequence was recorded using Intragate Flash multislices for motion free artifacts T1 weighted sequence (TR=100 ms, TE=4 ms, alpha=80°). The final images have a spatial resolution of […] in plane. The total scan time was in the order of 3 min 14 s per images. The dynamic follow-up is measured during in a scan time of 40 minutes.
# To study the biodistribution of each complex, several regions of interest (ROI) were monitored: the liver, muscle, spleen, kidney, and vessels. The corresponding MRI intensity related to the amount of the Gd complex contrast agents was plotted versus time to visualize the uptake and clearance of each complex into the organs. Comparison with commercial GdDOTA (DOTAREM, Guerbet, France) was also performed at the corresponding concentration of Gd (10 mM).
# HeLa cells [2] = test: MTT dark cytotoxicity in HeLa cells (PtGdL study); type: cell-based, human; conditions: 24 hours
# Protocol: (§1) Human cervical cancer HeLa cells were grown in Dulbecco's Modified Eagle Medium (DMEM). Human lung diploid fibroblasts-MRC-5 and prostate stromal-WPMY-1 cells were obtained from the cell resource center of Shanghai Institute of Biological Sciences, Chinese Academy of Sciences. MRC-5 and WPMY-1 are growth in MEM (GIBCO 41500034) and supplemented with 10% (v/v) fetal bovine serum, 1% penicillin and streptomycin at 37° C. and 5% CO2. […] After that, formazan was fully dissolved in DMSO through oscillation. Finally, the absorbance of solution was measured with Biotek Power wave xsMicroplate Reader at the wavelength of 570 nm and 690 nm.
# WPMY-1 cells = test: MTT dark cytotoxicity in WPMY-1 cells (PtGdL study); type: cell-based, human; conditions: 24 hours
# Protocol: as §1
# HeLa cells [3] = test: Two-photon induced activation, in vitro imaging and photo-cytotoxicity of PtGdL; type: cell-based, human
# Protocol: The cells were incubated with PtGdL (1, 2, 5, 10 μM) for 12 hours. The complexes (cell impermeable and dissolved in the medium) were washed out with PBS buffer. The cells with complexes were placed in the tissue culture chamber (5% CO2, 37° C.) inside the two-photon confocal microscope. In vitro images were captured by using the Leica SP8 (upright configuration) confocal microscope which equipped with femto-second laser (wavelength: 700 to 1000 nm) and 40×/60× oil immersion objective. […]
# [4] = Dynamic light scattering of PtGdL solution; type: physicochemical; conditions: aqueous solution, 25.0° C.
# Protocol: Dynamic Light Scattering (DLS) to investigate the presence of aggregates in a PtGdL solution was performed in Mavernm Zetasizer Nano-S equipment, at 25.0° C.
# [5] = Photo-induced dissociation of the cisplatin unit in tris buffer monitored by emission; type: physicochemical; conditions: tris buffer pH 7.4, UV 365 nm, 5 mW
# Protocol: One of the key issues is the photodissociation level of the Pt moiety from the compounds described herein. The triplet states of the chromophores before and after photo-release the drug or upon binding with αvβ3 isoform were measured. Based on the synthetic protocols described herein, La (lanthanum) and Gd (gadolinium) analogs can be synthesized to measure the triplet states of the chromophores as well. The measurements of the triplet states of these chromophores phosphorescence and their phosphorescence lifetime was undertaken at low temperature (77K). The photodissociation kinetics of PtEuL were investigated by monitoring the emission spectrum with different irradiation times of UVA/NIR (light dosage=4 J cm^−2). The plot of responsive and initial emission intensity at 615 nm (^5D0→^7F2) vs time will be fitted in the exponential growth and decay equation to obtain the pseudo-first order rate constant.
# The linear light induced dissociation of PtGdL in tris buffer (20 mM Tris base, 50 mM NaCl, pH 7.4) was monitored by determination of the emission intensity of solution of PtGdL in tris buffer with different light dosage of 365 nm UV light. In general, 3 mL of the solution of PtGdL (3 μM in tris buffer) in a 3.5 mL quartz cuvette was irradiated with a 365 nm UV lamp (5 mW) with stirring. The emission spectra of the solution were recorded at different time points (0, 1, 3, 5, 7, 10, 15, 20, 30, 45, 60, 75 and 90 min).
# (Ln=Eu or Gd). The solution-state electronic adsorption and emission spectra of all the complexes and the ligand were recorded at 298 K (FIGS. 28A-28D). The EuL complex is the product of PtEuL after photo-dissociation and was used to monitor the photo-dissociation of [Pt—(NH3)2Cl]^+ from PtEuL. […] The photo-dissociation of PtEuL (3 μM in Tris-buffer, pH=7.4, 50 mM NaCl) was monitored by the variation of the Eu emission (λem=615 nm, ^5D0→^7F2) with the irradiation time. […] The pseudo-first order rate constant k was determined to be 0.53 min^−1 under these experimental conditions (FIG. 28D).
# Plasmid DNA = test: Agarose gel electrophoresis of plasmid DNA after UVA irradiation (PtEuL); type: biochemical; conditions: 20 μM, UVA light dose 50 J m^−2
# From the text: The DNA gel images were obtained using GelRed Nucleic Acid Stain (BIOTIUM).
# Direct binding of PtEuL with DNA in dark were studied by circular dichroism (CD). […] The interaction of photo-activated PtEuL with DNA was examined by agarose gel electrophoresis (FIG. 29B). After UVA irradiation with PtEuL, conversion of the supercoiled conformer of the plasmid DNA to its open-circular conformer, which indicates DNA nicking (single strand break) and linear conformer, which indicates double strand break, is clearly seen.
structure (smiles),measurement,setting,value
"O=C([O-])CN1CCN(CC(=O)[O-])CCN(CC(=O)[O-])CCN(CC(=O)[O-])CC1.[Gd+3] [GdDOTA, reference compound]",clearance rate in the liver,"[1]; mice, i.v. tail vein",0.016 enh/min
O.O=C([O-])CN1CCN(CC(=O)[O-])CCN(Cc2cc(C#Cc3ccc(NC(=O)c4ccncc4)cc3)ccn2)CCN(CC(=O)[O-])CC1.[Gd+3] [GdL],IC50,HeLa cells [2],> 200 µM
same,decrease of signal enhancement,[1]; 4 hours after injection,90%
same,clearance rate in the liver,"[1]; mice, i.v. tail vein",0.002 enh/min
same,IC50,WPMY-1 cells,> 200 µM
same,"cell death, control under the same experimental conditions",HeLa cells [3]; with 730 nm laser irradiation,no significant cell death
O.O=[N+]([O-])[O-].[Gd+3].[NH3+][Pt-2]([NH3+])([Cl])[n+]1ccc(C(=O)Nc2ccc(C#Cc3ccnc(CN4CCN(CC(=O)[O-])CCN(CC(=O)[O-])CCN(CC(=O)[O-])CC4)c3)cc2)cc1 [PtGdL],PDI (DLS),[4],0.156
same,size of aggregates in solution (DLS),[4]; single peak,672±24 nm
same,pseudo-first order rate constant k for the dissociation of the cisplatin unit,[5],0.051 min⁻¹
same,IC50,HeLa cells [2],~23.6 µM and ~25 µM
same,change of signal enhancement,[1]; after 24 hours,did not change greatly
same,remanence time in renal cortex,"[1]; mice, i.v. tail vein",4 to 18 h
same,"delay in capture, depending on the tissue of interest","[1]; mice, liver, spleen, kidneys",6 to 9 min
same,IC50,WPMY-1 cells,43.9 ± 1.1 µM
same,dosage concentration at which dramatic cell death can be observed,HeLa cells [3]; 730 nm laser excitation for 30 min,less than 5 μM
same,emission and cell death absent exposure to laser irradiation,HeLa cells [3]; no laser irradiation,no significant emission and/or cell death
"N.N.[Cl][Pt][Cl] [cisplatin, reference compound]",DNA photocleavage activity,Plasmid DNA,less significantly
